Tests used:
Assay type in all cases: in vivo
[1] = system: pigweed (Amaranthus retroflexus); assay: Test B pre-/postemergence plant response; conditions: for Pigweed plant response rating: 0 to 100 scale
Summary of the method: (§1)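 Response scores were assigned visually after 13 to 15 days in a greenhouse, comparing treated pots with controls on a 0–100 scale where 100 denotes complete control. Preemergence treatments went onto freshly seeded loam/sand soil; postemergence treatments onto plants 2 to 18 cm tall.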

[2] = system: galium (catchweed bedstraw, Galium aparine); assay: Test B pre-/postemergence plant response; conditions: Preemergence; for Galium plant response rating: 250 g ai/ha, 0 to 100 scale
Summary of the method: as §1

[3] = system: nightshade (eastern black nightshade, Solanum ptycanthum); assay: Test B pre-/postemergence plant response; conditions: Preemergence; for Nightshade plant response rating: 250 g ai/ha, 0 to 100 scale
Summary of the method: as §1

wild oat (Avena fatua) = assay: Test B pre-/postemergence plant response; conditions: for Oat, Wild plant response rating: 0 to 100 scale
Summary of the method: as §1

[4] = system: sunflower (common oilseed sunflower, Helianthus annuus); assay: Test B pre-/postemergence plant response; conditions: Preemergence; for Sunflower plant response rating: 250 g ai/ha, 0 to 100 scale
Summary of the method: as §1

[5] = system: canarygrass (Phalaris minor); assay: Test B postemergence plant response; conditions: Postemergence
Summary of the method: (§2)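 Plants at the 1- to 4-leaf stage (2 to 18 cm tall), grown in pots of peat moss/vermiculite medium with wetting agent and starter nutrients, received postemergence applications of test chemicals. After 13 to 15 days in a greenhouse, injury was rated visually against untreated controls on a 0 (no effect) to 100 (complete control) scale.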

[6] = system: chickweed (Stellaria media); assay: Test B postemergence plant response; conditions: Postemergence
Summary of the method: as §2

[7] = system: winter barley (Hordeum vulgare); assay: Test B postemergence plant response; conditions: Postemergence
Summary of the method: as §2

[8] = system: windgrass (Apera spica-venti); assay: Test B postemergence plant response; conditions: Postemergence
Summary of the method: as §2

[9] = system: ducksalad (Heteranthera limosa); assay: Test B flooded paddy test; conditions: for Plant response rating, Flood, Ducksalad: 250 g ai/ha, flooded paddy test, visual rating on 0 to 100 scale (0 no effect, 100 complete control) after 13 to 15 days; for Plant response rating, Ducksalad: Flood (flooded paddy test), 13 to 15 days; for Ducksalad plant response rating: Flood, 31 g ai/ha, scale 0 to 100 (0 no effect, 100 complete control)
Summary of the method: (§3)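 Visual scores run from 0 (no effect) to 100 (complete control), assigned by comparison with controls 13 to 15 days after treatment. Test compounds went straight into water standing 3 cm above the soil, around plants at the 2-leaf stage kept in a greenhouse.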

rice (Oryza sativa) = assay: Test B flooded paddy test; conditions: for Plant response rating, Flood, Rice: 250 g ai/ha, flooded paddy test, visual rating on 0 to 100 scale (0 no effect, 100 complete control) after 13 to 15 days; for Plant response rating, Rice: Flood (flooded paddy test), 13 to 15 days; for Rice plant response rating: Flood, 31 g ai/ha, scale 0 to 100 (0 no effect, 100 complete control)
Summary of the method: as §3

[10] = system: barnyardgrass (Echinochloa crus-galli); assay: Test B flooded paddy test; conditions: for Plant response rating, Flood, Barnyardgrass: 250 g ai/ha, flooded paddy test, visual rating on 0 to 100 scale (0 no effect, 100 complete control) after 13 to 15 days; for Plant response rating, Barnyardgrass: Flood (flooded paddy test), 13 to 15 days; for Barnyardgrass plant response rating: Flood, 31 g ai/ha, scale 0 to 100 (0 no effect, 100 complete control)
Summary of the method: as §3

[11] = system: umbrella sedge (Cyperus difformis); assay: Test B flooded paddy test; conditions: for Plant response rating, Flood, Sedge, Umbrella: 250 g ai/ha, flooded paddy test, visual rating on 0 to 100 scale (0 no effect, 100 complete control) after 13 to 15 days; for Plant response rating, Sedge, Umbrella: Flood (flooded paddy test), 13 to 15 days; for Sedge, Umbrella plant response rating: Flood, 31 g ai/ha, scale 0 to 100 (0 no effect, 100 complete control)
Summary of the method: as §3

[12] = Postemergence, 31 g ai/ha, 0 to 100 scale (0 no effect, 100 complete control)
[13] = Postemergence, 250 g ai/ha, scale 0 to 100 (0 no effect, 100 complete control), 13 to 15 days
[14] = Postemergence, 62 g ai/ha, scale 0 to 100 (0 no effect, 100 complete control)
[15] = Preemergence, 31 g ai/ha, scale 0 to 100 (0 no effect, 100 complete control)
[16] = Preemergence, 62 g ai/ha, scale 0 to 100, 0 no effect, 100 complete control
[17] = Preemergence, 125 g ai/ha, scale 0 to 100, 0 no effect, 100 complete control
[18] = 31 g ai/ha, scale 0 to 100 (0 no effect, 100 complete control)
[19] = 62 g ai/ha, scale 0 to 100, 0 no effect, 100 complete control
[20] = 125 g ai/ha, scale 0 to 100, 0 no effect, 100 complete control
[21] = 31 g ai/ha, 0 to 100 scale (0 no effect, 100 complete control)
[22] = 125 g ai/ha, scale 0 to 100 (0 no effect, 100 complete control)
[23] = 250 g ai/ha, scale 0 to 100 (0 no effect, 100 complete control), 13 to 15 days
[24] = 62 g ai/ha, scale 0 to 100 (0 no effect, 100 complete control)
[25] = 62 g ai/ha, scale of 0 to 100 where 0 is no effect and 100 is complete control
[26] = 125 g ai/ha, scale 0 to 100, 0 is no effect, 100 is complete control
[27] = Postemergence, 125 g ai/ha, scale 0 (no effect) to 100 (complete control), 13 to 15 days
[28] = 125 g ai/ha, scale 0 (no effect) to 100 (complete control), 13 to 15 days

CCc1cccc(-n2c(-c3ccccc3)ncc(C(=O)C3=C(O)CCCC3=O)c2=O)c1 [Compound 220]
Plant response rating, Pigweed [1, 12]: 95
Plant response rating, Pigweed [1, 13]: 100
Plant response rating, Pigweed [1, 14]: 100
Plant response rating, Pigweed [1, 15]: 100
Plant response rating, Pigweed [1, 16]: 100
Plant response rating, Pigweed [1, 17]: 100
Pigweed plant response rating ([1]; Preemergence, 250 g ai/ha): 100
Plant response rating, Galium [2, 18]: 0
Plant response rating, Galium [2, 19]: 50
Plant response rating, Galium [2, 20]: 90
Galium plant response rating [2]: 100
Plant response rating, Nightshade [3, 18]: 65
Plant response rating, Nightshade [3, 19]: 90
Plant response rating, Nightshade [3, 20]: 98
Nightshade plant response rating [3]: 100
Plant response rating, Oat, Wild (wild oat (Avena fatua); [12]): 10
Plant response rating, Oat, Wild (wild oat (Avena fatua); [13]): 50
Plant response rating, Oat, Wild (wild oat (Avena fatua); [14]): 20
Plant response rating, Oat, Wild (wild oat (Avena fatua); [16]): 0
Plant response rating, Oat, Wild (wild oat (Avena fatua); [17]): 0
Oat, Wild plant response rating (wild oat (Avena fatua); Preemergence, 250 g ai/ha): 60
Plant response rating, Sunflower [4, 18]: 0
Plant response rating, Sunflower [4, 19]: 45
Plant response rating, Sunflower [4, 20]: 70
Sunflower plant response rating [4]: 90
Plant response rating, Canarygrass [5, 21]: 10
Plant response rating, Canarygrass [5, 22]: 10
Plant response rating, Canarygrass [5, 23]: 30
Plant response rating, Canarygrass [5, 24]: 10
Plant response rating, Chickweed [6, 21]: 95
Plant response rating, Chickweed [6, 22]: 98
Plant response rating, Chickweed [6, 23]: 100
Plant response rating, Chickweed [6, 24]: 95
Plant response rating, Barley [7, 21]: 10
Plant response rating, Barley [7, 22]: 10
Plant response rating, Barley [7, 23]: 15
Plant response rating, Barley [7, 24]: 10
Plant response rating, Windgrass [8, 21]: 5
Plant response rating, Windgrass [8, 23]: 60
Plant response rating, Windgrass [8, 24]: 40
Plant response rating, Flood, Ducksalad [9]: 100
Plant response rating, Ducksalad [9, 25]: 40
Plant response rating, Ducksalad [9, 26]: 85
Ducksalad plant response rating [9]: 30
Plant response rating, Flood, Rice (rice (Oryza sativa)): 70
Plant response rating, Rice (rice (Oryza sativa); [25]): 15
Plant response rating, Rice (rice (Oryza sativa); [26]): 50
Rice plant response rating (rice (Oryza sativa)): 0
Plant response rating, Flood, Barnyardgrass [10]: 40
Plant response rating, Barnyardgrass [10, 25]: 0
Plant response rating, Barnyardgrass [10, 26]: 30
Barnyardgrass plant response rating [10]: 0
Plant response rating, Flood, Sedge, Umbrella [11]: 85
Plant response rating, Sedge, Umbrella [11, 25]: 0
Plant response rating, Sedge, Umbrella [11, 26]: 20
Sedge, Umbrella plant response rating [11]: 0

COCCCn1c(-c2cc(F)cc(F)c2)ncc(C(=O)C2=C(O)C3CCC(C3)C2=O)c1=O (centres unmarked) [Compound 244]
Plant response rating, Pigweed [1, 12]: 95
Plant response rating, Pigweed [1, 27]: 100
Plant response rating, Pigweed [1, 13]: 100
Plant response rating, Pigweed [1, 14]: 100
Plant response rating, Pigweed [1, 15]: 100
Plant response rating, Pigweed [1, 16]: 100
Plant response rating, Pigweed [1, 17]: 100
Pigweed plant response rating ([1]; Preemergence, 250 g ai/ha): 100
Plant response rating, Galium [2, 18]: 55
Plant response rating, Galium [2, 19]: 65
Plant response rating, Galium [2, 20]: 98
Galium plant response rating [2]: 98
Plant response rating, Nightshade [3, 18]: 98
Plant response rating, Nightshade [3, 19]: 100
Plant response rating, Nightshade [3, 20]: 100
Nightshade plant response rating [3]: 100
Plant response rating, Oat, Wild (wild oat (Avena fatua); [12]): 50
Plant response rating, Oat, Wild (wild oat (Avena fatua); [27]): 95
Plant response rating, Oat, Wild (wild oat (Avena fatua); [13]): 98
Plant response rating, Oat, Wild (wild oat (Avena fatua); [14]): 70
Plant response rating, Oat, Wild (wild oat (Avena fatua); [15]): 0
Plant response rating, Oat, Wild (wild oat (Avena fatua); [16]): 5
Plant response rating, Oat, Wild (wild oat (Avena fatua); [17]): 10
Oat, Wild plant response rating (wild oat (Avena fatua); Preemergence, 250 g ai/ha): 40
Plant response rating, Sunflower [4, 18]: 80
Plant response rating, Sunflower [4, 19]: 80
Plant response rating, Sunflower [4, 20]: 85
Sunflower plant response rating [4]: 100
Plant response rating, Canarygrass [5, 21]: 80
Plant response rating, Canarygrass [5, 28]: 98
Plant response rating, Canarygrass [5, 23]: 100
Plant response rating, Canarygrass [5, 24]: 95
Plant response rating, Chickweed [6, 21]: 80
Plant response rating, Chickweed [6, 28]: 98
Plant response rating, Chickweed [6, 23]: 100
Plant response rating, Chickweed [6, 24]: 95
Plant response rating, Barley [7, 21]: 50
Plant response rating, Barley [7, 28]: 90
Plant response rating, Barley [7, 23]: 98
Plant response rating, Barley [7, 24]: 65
Plant response rating, Windgrass [8, 21]: 50
Plant response rating, Windgrass [8, 28]: 80
Plant response rating, Windgrass [8, 23]: 95
Plant response rating, Windgrass [8, 24]: 70
Plant response rating, Flood, Ducksalad [9]: 100
Plant response rating, Ducksalad [9, 25]: 80
Plant response rating, Ducksalad [9, 26]: 100
Ducksalad plant response rating [9]: 35
Plant response rating, Flood, Rice (rice (Oryza sativa)): 85
Plant response rating, Rice (rice (Oryza sativa); [25]): 0
Plant response rating, Rice (rice (Oryza sativa); [26]): 60
Rice plant response rating (rice (Oryza sativa)): 0
Plant response rating, Flood, Barnyardgrass [10]: 75
Plant response rating, Barnyardgrass [10, 25]: 20
Plant response rating, Barnyardgrass [10, 26]: 40
Barnyardgrass plant response rating [10]: 0
Plant response rating, Flood, Sedge, Umbrella [11]: 100
Plant response rating, Sedge, Umbrella [11, 25]: 0
Plant response rating, Sedge, Umbrella [11, 26]: 100
Sedge, Umbrella plant response rating [11]: 0
